For orientation: Tmax means the time from dosing to the highest level. Broadly, the Cmax is the highest concentration seen after dosing.

The nature of data set [1]: Pharmacokinetic study in rats, testosterone plasma concentrations after oral gavage. As to conditions: testosterone in plasma, oral gavage.
Data set [2] is described as follows: Pharmacokinetic study in greyhound dogs, testosterone plasma concentrations after oral administration. Format: in vivo. As to conditions: fed state. On the procedure: For the dog studies, female greyhound dogs were held in a large animal research facility for at least 5 days prior to the commencement of studies. The dogs were allowed to acclimatise for at least 4 days prior to commencing the study. The dogs were fasted for 12 h up to 30 min prior to drug administration. For the fed state studies (n=4 for TU or Compound 13), dogs received 680 g of standard commercial dog food containing 5% fat min prior to drug administration. In the fasted study (n=1 for Compound 13), the dog remained fasted until after 4 h post-dose. Water was available ad libitum throughout the study for all dogs. On the study day, a 20 gauge intravenous catheter was inserted into a cephalic vein to allow blood sampling. The dogs were free to move around (not restrained) after cannulation. For the fed state studies, Andriol Testocaps (the commercial TU product) or Compound 13 was given to the dogs. Andriol Testocaps were supplied by Merck Sharp & Dohme (Australia) Pty Limited and were formulated as soft gelatin capsule containing a 12.0% (w/w) solution of TU in lauroglycol FCC/castor oil [40:60% (w/w)] with the individual capsule composition being 40 mg of TU, lauroglycol FCC, castor oil, gelatin, glycerol, and sunset yellow (E110). Compound 13 was prepared in a long-chain lipid based self-emulsifying drug delivery system (SEDDS) that consisted of 30.5% w/w soybean oil, 30.5% w/w Maisine 35-1, 31.6% w/w Cremophor EL and 7.4% w/w ethanol. Formulations were filled into hard gelatin capsules. Two capsules of Andriol Testocaps containing 80 mg TU or two capsules of Compound 13 containing a total dose of 90 mg Compound 13 dissolved in 2 g of the SEDDS formulation were administrated to the fed greyhound dog by placing the capsules as far posterior to the pharynx as possible, closing the mouth and rubbing the throat to stimulate swallowing. Subsequently 50 mL of water was administered orally via a syringe. Two capsules of Compound 13 formulation were also administrated to the fasted dogs for fasted state studies. After oral administration, blood samples (approx. 3 mL each) were taken via the cephalic vein cannula from 5 min prior to administration up to 10 hours post-dosing. The patency of the catheters was maintained by flushing with a small volume of heparinised saline (1-2 IU/mL) after each blood sample was withdrawn. Blood samples at 24 h were taken by venepuncture. Plasma was separated by centrifugation and aliquots of each plasma sample were transferred into eppendorf tubes and store at −80° C. prior to analysis by LC-MS-MS.

The conditions of data set [3]: cited from earlier work.
Where [4] appears, read: conscious carotid artery cannulated SD female rats, normalized to 2 mg/kg equivalent testosterone dose.

Structures are written as SMILES. Bounds are passed on as bounds.

With `CCCCCCCCCCC(=O)O[C@H]1CC[C@H]2[C@@H]3CCC4=CC(=O)CC[C@]4(C)[C@H]3CC[C@]12C` [TU, testosterone undecanoate, reference compound], the “AUC0-24 h fold increase compared with TU group” value in data set [1] (SD female rats, dose-normalized) turned out to be 1.0 fold; in data set [2] (greyhound dogs, dose-normalized), 1 fold. In addition, the Tmax is reported as 1.5 ± 0.0 h in data set [1] (conscious carotid artery cannulated SD female rats) and 1.8 ± 0.1 h in data set [2] (oral capsules, greyhound dogs). Besides, the AUC0-24 h is 0.0068 ± 0.0004 µM·h in data set [1] (setting [4]) and 0.1411 ± 0.0221 µM·h in data set [2] (oral capsules, greyhound dogs, normalized to 2 mg/kg equivalent testosterone dose). In addition, the Cmax in data set [1] (setting [4]) turned out to be 5.6 ± 0.5 nM; in data set [2] (oral capsules, conscious greyhound dogs, normalized to 2 mg/kg equivalent testosterone dose, TU as Andriol Testocaps, Compound 13 in SEDDS) it was 75.4 ± 12.8 nM. In addition, the “Transport of total TST derivatives in lymph (% of dose)” value (anaesthetised, mesenteric lymph-duct cannulated female SD rats, intraduodenal infusion 0-2 h, cumulative over 8 h) is on record as 1.9 ± 0.3 % of dose. Further, the “Fold increase (compared with control group dosed with TU)” value (lymphatic transport of total TST derivatives, female SD rats, intraduodenal infusion) worked out at 1.0 fold. In addition, in data set [3], the “bioavailability of testosterone after oral administration of the undecanoate ester” value was less than 5%.

The values are drawn from US11311512B2, “Lymph directing prodrugs” (priority 2014, dated 2022).
